Read-outs that look alike come from different tables or passages of the source.
Columns and labels:
α-glucosidase [1] = assay: α-glucosidase inhibition assay (PNPG hydrolysis, absorbance at 405 nm); assay type: biochemical; settings: α-glucosidase 0.2 U/mL, phosphate buffer pH 6.8, 37° C., PNPG substrate, IC50 calculated with SPSS, read-out: α-glucosidase inhibitory activity IC50
Procedure: The concentration of pNP in the reaction solution, as measured by a plate reader, allows for the detection of the sample's ability to inhibit the activity of α-glucosidase. […] The mixture is then incubated at 37° C. for 15 minutes, after which 20 μL of PNPG solution (2.5 mM) is added. After a 15-minute reaction at 37° C., 80 μL of Na2CO3 solution (2.5 mM) is added, and the absorbance at 405 nm (ODtest) is measured using a plate reader. […] The formula for calculating the enzyme activity inhibition rate is as follows: [formula] The inhibitory effect of the tested monomers on α-glucosidase a gradient concentrations was used to calculate the IC50 values with SPSS.

α-glucosidase [2] = settings: cited from earlier work

Row | SMILES | IC50 (α-glucosidase [1]) [nM] | IC50 (α-glucosidase [1]; listed as myricetin-3-O-(4″-O-galloyl)-α-L-rhamnoside) [nM] | rank of α-glucosidase inhibitory activity among 27 dietary flavonoids (α-glucosidase [2]; comparative study of 27 dietary flavonoids (Jia Y, et al., 2019)) | rank of α-glucosidase inhibitory activity among 15 types of flavonoids (α-glucosidase [2]; report on 15 types of flavonoids (He C., et al., 2019))
1 | CC1OC(Oc2c(-c3cc(O)c(O)c(O)c3)oc3cc(O)cc(O)c3c2=O)C(OC(=O)c2cc(O)c(O)c(O)c2)C(O)C1O [myricetin-3-O-(2″-galloyl)-α-L-rhamnoside] | 1320 |  |  | 
2 | CC1OC(Oc2c(-c3cc(O)c(O)c(O)c3)oc3cc(O)cc(O)c3c2=O)C(O)C(O)C1OC(=O)c1cc(O)c(O)c(O)c1 [myricetin-3-O-(4″-galloyl)-α-L-rhamnoside] | 1770 | 15600 |  | 
3 | O=c1c(O)c(-c2cc(O)c(O)c(O)c2)oc2cc(O)cc(O)c12 [myricetin] | 1770 |  | strongest inhibitor | strongest inhibitory effect

— US20250026776A1, “Method for Simultaneously Separating and Purifying Two Galloylated Myricitrins from Morella rubra Leaves, and Use therefor” (Zhejiang University, priority 2022, published 2025)
